Data published in USRE48461E1, “Modulation of androgen receptor expression” (Ionis Pharmaceuticals, Inc., priority 2012, dated 2021).
Oligonucleotides are written 5' to 3', each unit as a sugar letter and its base; * is a phosphorothioate linkage, no mark a phosphodiester; rarer units and linkages stand in square brackets, end groups in braces. Plain capitals give the bases only. k = constrained ethyl (cEt); [5mC] = 5-methylcytosine; d = 2'-deoxy (DNA)

What was measured:
AR mRNA [1] = assay: Antisense inhibition of human AR in HuVEC cells, single concentration (electroporation, qRT-PCR RTS3559); assay type: cell-based
Outline: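 HuVEC cells electroporated with antisense oligonucleotides at a single concentration. AR mRNA quantified by qRT-PCR using human primer-probe set RTS3559 and normalised to total RNA content by RIBOGREEN.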

AR mRNA [2] = assay: Dose-dependent antisense inhibition of human AR in HuVEC cells (electroporation, qRT-PCR RTS3559, IC50); assay type: cell-based; settings: HuVEC
Outline: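 HuVEC cells dosed with antisense oligonucleotides by electroporation and treated approximately 16 hours. AR mRNA quantified by real-time qPCR with primer probe set RTS3559 and normalised to total RNA by RIBOGREEN; IC50 from dose-response.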

[3] = Table 31, electroporation, approximately 16 hours
[4] = Table 29, electroporation, approximately 16 hours
[5] = Table 34, electroporation, approximately 16 hours

## 549377 (kA*kG*kG*dA*dT*dG*dA*dG*dG*dA*dA*dG*d[5mC]*kG*kG*k[5mC]; antisense) [compound 549377]
AR mRNA [1]; 500 nM ASO, electroporation, ~24 h, Table 1
  % inhibition: 90%
AR mRNA [2]; 55.6 nM, ~16 h, Table 3
  percent inhibition of AR: 13%
AR mRNA [2]; 166.7 nM, ~16 h, Table 3
  percent inhibition of AR: 52%
AR mRNA [2]; 500.0 nM, ~16 h, Table 3
  percent inhibition of AR: 72%
AR mRNA [2]; 1500.0 nM, ~16 h, Table 3
  percent inhibition of AR: 93%
AR mRNA [2]; ~16 h, Table 3
  IC50: 216 nM

## 549459 (kA*kT*kG*dG*dT*dT*dG*dA*dT*dT*dT*dA*dA*kT*kG*kG) [compound 549459]
AR mRNA [1]; 500 nM ASO, electroporation, ~24 h, Table 2
  % inhibition: 96%
AR mRNA [1]; 500 nM ASO, ~24 h, Table 5
  % inhibition: 92%
AR mRNA [2]; 31.25 nM, ~16 h, Table 6
  percent inhibition of AR: 16%
AR mRNA [2]; 55.6 nM, ~16 h, Table 4
  percent inhibition of AR: 61%
AR mRNA [2]; 62.5 nM, ~16 h, Table 6
  percent inhibition of AR: 23%
AR mRNA [2]; 125.0 nM, ~16 h, Table 6
  percent inhibition of AR: 50%
AR mRNA [2]; 166.7 nM, ~16 h, Table 4
  percent inhibition of AR: 90%
AR mRNA [2]; 500.0 nM, ~16 h, Table 4
  percent inhibition of AR: 94%
AR mRNA [2]; 500.0 nM, ~16 h, Table 6
  percent inhibition of AR: 85%
AR mRNA [2]; 1000.0 nM, ~16 h, Table 6
  percent inhibition of AR: 92%
AR mRNA [2]; 1500.0 nM, ~16 h, Table 4
  percent inhibition of AR: 97%
AR mRNA [2]; ~16 h, Table 4
  IC50: 18 nM
AR mRNA [2]; ~16 h, Table 6
  IC50: 100 nM

## 583795 (antisense kT*kG*k[5mC]*dT*dG*dT*dT*dG*d[5mC]*dT*dG*dA*dA*kG*kG*kA) [compound 583795]
AR mRNA [1]; Table 19, 500 nM oligonucleotide, electroporation, approximately 24 hours, relative to untreated control
  % inhibition: 63%
AR mRNA [2]; [3]
  percent inhibition of AR, 46.9 nM: 37%
  percent inhibition of AR, 187.5 nM: 61%
  percent inhibition of AR, 750.0 nM: 83%
  percent inhibition of AR, 3000.0 nM: 90%
  IC50: 90 nM

## 583566 (antisense k[5mC]*k[5mC]*kT*dT*dG*d[5mC]*dT*dT*d[5mC]*d[5mC]*dT*d[5mC]*d[5mC]*kG*kA*kG) [compound 583566]
AR mRNA [1]; 500 nM ASO, ~24 h, Table 16
  % inhibition: 47%
AR mRNA [2]; [4]
  percent inhibition of AR, 46.9 nM: 0%
  percent inhibition of AR, 187.5 nM: 28%
  percent inhibition of AR, 750.0 nM: 50%
  percent inhibition of AR, 3000.0 nM: 74%
  IC50: 730 nM

## 583583 (antisense kG*kA*k[5mC]*dT*dG*dA*dG*dG*d[5mC]*dA*dG*d[5mC]*dT*kG*k[5mC]*kG) [compound 583583]
AR mRNA [1]; 500 nM ASO, ~24 h, Table 16
  % inhibition: 45%
AR mRNA [2]; [4]
  percent inhibition of AR, 46.9 nM: 21%
  percent inhibition of AR, 187.5 nM: 31%
  percent inhibition of AR, 750.0 nM: 49%
  percent inhibition of AR, 3000.0 nM: 64%
  IC50: 790 nM

## 583584 (antisense k[5mC]*k[5mC]*kG*dA*d[5mC]*dT*dG*dA*dG*dG*d[5mC]*dA*dG*k[5mC]*kT*kG) [compound 583584]
AR mRNA [1]; 500 nM ASO, ~24 h, Table 16
  % inhibition: 44%
AR mRNA [2]; [4]
  percent inhibition of AR, 46.9 nM: 24%
  percent inhibition of AR, 187.5 nM: 44%
  percent inhibition of AR, 750.0 nM: 52%
  percent inhibition of AR, 3000.0 nM: 73%
  IC50: 410 nM

## 583608 (antisense kG*k[5mC]*kT*dA*dG*d[5mC]*dT*d[5mC]*dG*d[5mC]*d[5mC]*d[5mC]*dG*k[5mC]*kT*k[5mC]) [compound 583608]
AR mRNA [1]; 500 nM ASO, ~24 h, Table 17
  % inhibition: 51%
AR mRNA [2]; [4]
  percent inhibition of AR, 46.9 nM: 12%
  percent inhibition of AR, 187.5 nM: 46%
  percent inhibition of AR, 750.0 nM: 67%
  percent inhibition of AR, 3000.0 nM: 76%
  IC50: 350 nM

## 583613 (antisense kG*k[5mC]*kA*dA*dT*dG*dT*dG*d[5mC]*dA*dG*d[5mC]*dT*kA*kG*k[5mC]) [compound 583613]
AR mRNA [1]; 500 nM ASO, ~24 h, Table 17
  % inhibition: 51%
AR mRNA [2]; [4]
  percent inhibition of AR, 46.9 nM: 24%
  percent inhibition of AR, 187.5 nM: 60%
  percent inhibition of AR, 750.0 nM: 70%
  percent inhibition of AR, 3000.0 nM: 75%
  IC50: 190 nM

## 583932 (kT*k[5mC]*kT*d[5mC]*d[5mC]*dA*dG*d[5mC]*dT*dT*dG*dA*dT*kG*k[5mC]*kG; antisense) [compound 583932]
AR mRNA [1]; Table 21, 500 nM oligonucleotide, electroporation, approximately 24 hours, relative to untreated control
  % inhibition: 39%
AR mRNA [2]; [5]
  percent inhibition of AR, 46.9 nM: 9%
  percent inhibition of AR, 187.5 nM: 35%
  percent inhibition of AR, 750.0 nM: 64%
  percent inhibition of AR, 3000.0 nM: 81%
  IC50: 380 nM
